Measurements taken from patent publication US20250290110A1, “MOGROSIDE COMPOSITIONS AND METHODS OF PRODUCING SAME” (Elo Life Systems, priority 2024, published 2025).
Where “and” joins values, the source holds several entries; their conditions need not be identical. Identical values can stand only once. Entries after “also recorded” stand apart in the source; their conditions may differ.

What was measured:
[1] = Descriptive analysis of sweetener attributes, sensory panel, 15-cm line scale; assay type: in vivo, human; details: for Astringent, average intensity score / Bitter Linger, average intensity score / Bitterness, average intensity score / Body, average intensity score / Caramel, average intensity score / Fruity, average intensity score / Licorice, average intensity score / Sweet Linger, average intensity score / Sweetness, average intensity score: about 6 SEV in spring water, 0=low, 60=high; for taste quality in words: sensory panel
Description: The same samples described above were presented to a panel of 6-9 experienced judges for descriptive analysis. Solutions were blind-coded with random 3-digit codes and served at room temperature for evaluation. Panelists individually scored attributes of each sample, such as sweetness intensity, bitterness, astringency, and the presence of side flavors such as licorice or fruitiness. Scores were based on a 15-cm line scale marked with evenly spaced 5-point increments from low (0) to high (60). Samples were evaluated in duplicate. Water and saltine crackers were provided for rinsing between samples.
(§1) A solution of V90 was made at 410 ppm in spring water (Ice Mountain, retail) to be about 6 SEV. A second solution was made at about 6 SEV of purified mogroside-V (Chem Faces, CFS202202) at 325 ppm. A panel of 7-8 trained judges evaluated the temporal properties and taste attributes of each sample, including blind duplicates, in the same manner described previously in the Mogroside Blend 80/15/5 Taste Quality sections.
The panel also evaluated the intensity of several sensory attributes such as bitterness, astringency, caramel flavor, and fruitiness. The same 15-cm line scale was used for scoring, labeled from low (0) to high (60) with evenly spaced 5-point increments. The samples were served in 4-oz soufflé cups that were labeled with random 3-digit codes. Samples were evaluated at room temperature and included blind duplicates. Water and saltine crackers were provided for rinsing between samples. A 400-ppm solution of V90 (Huacheng Bio, LHGE-230401) was tasted as a reference at the beginning of the descriptive analysis session for calibration verification among panelists.

[2] = Sweetness concentration response curve against sucrose reference standards, trained sensory panel; assay type: in vivo, human; details: for Potency at 5 SEV / potency, times as sweet as sucrose at 5 SEV: spring water, room temperature; for potency, times as sweet as sucrose at 5 SEV: at 5 sucrose equivalent value (SEV)
Description: A blend composed of 80% purified mogroside-V (Chem Faces, CFS202202), 15% 11-oxo-mogroside-V (Chem Faces, CFS202201), and 5% mogroside IIIA-1 (Chem Faces, CFS202201) was diluted to six different concentrations (from 100 ppm to 650 ppm) in spring water (Ice Mountain, retail). For each solution, a set of five reference standards of sucrose dissolved in water in 0.5% (w/w) concentration increments was also prepared. Each concentration of the mogroside blend was evaluated by 6-8 trained judges. Samples were presented in 4-oz soufflé cups at room temperature, and the test sample was labeled with a random 3-digit code. Panelists tasted the blind-coded sample compared to the set of reference samples to determine the sweetness intensity score to the nearest 0.1 unit. Each concentration was evaluated in duplicate. The sweetness intensity scores were then plotted against the mogroside blend concentration to make a concentration response curve, and the best fitting Beidler equation was generated.
V90 is a 90% pure mogroside V containing about 6% 11-oxo mogroside-V. Five different concentrations of V90 (Huacheng Bio, LHGE-230401), ranging from 100 ppm to 500 ppm, were diluted in spring water (Ice Mountain, retail). Each dilution was presented to a panel of 7-8 judges experienced in evaluating sweeteners and was accompanied by a range of five sucrose solution reference standards bracketing the sweetness intensity of the test sample in 0.5% (w/w) increments. Panelists assigned a sweetness intensity score to each test sample, including blind duplicates, to the nearest 0.1 unit. All samples were served at room temperature in 4-oz soufflé cups with the test samples labeled with random 3-digit codes. Water and saltine crackers were provided for rinsing between samples.
Both individual mogrosides were also evaluated at five different concentrations in spring water (Ice Mountain, retail) for sweetness intensity. 11-oxo-mogroside was diluted to concentrations ranging from 200 ppm to 600 ppm and mogroside IIIA-1 was diluted to concentrations from 100 to 500 ppm. For each concentration, a set of five sucrose solution reference standards were prepared in 0.5% (w/w) increments to approximately bracket the sweetness intensity of the test sample. A panel of 6-8 trained judges evaluated each test sample in duplicate, accompanied by the corresponding reference standards, and assigned a sweetness intensity score to the sample to the nearest 0.1 unit. Samples were presented in 4-oz soufflé cups at room temperature, and the test sample was labeled with a random 3-digit code. The sweetness intensity scores were then plotted as a function of mogroside concentration to make a concentration response curve, and the best fitting Beidler equation was generated.
The error bars around each point represent 1 standard deviation. The data fit a Beidler equation with an r2 value of 0.961. The equation for this line is:
SEV=16.08*C/(521.2+C) • where SEV is the % sucrose equivalent sweetness as determined by sensory panel and C is the concentration of mogroside blend in ppm or mg/L.
P=SEV*10,000/C • where C is the concentration of the mogroside blend in ppm or mg/L and SEV is the % sucrose equivalent sweetness determined by sensory panel.

[3] = Temporal properties: onset of sweetness, time to maximum sweetness, aftertaste decay, trained sensory panel; assay type: in vivo, human
Description: Equi-sweet solutions at about 6 SEV were made in spring water (Ice Mountain, retail) of the following sweeteners: purified mogroside-V (Chem Faces, CFS202202), rebaudioside M (95%, Tate & Lyle, lot #1802-2302-1), rebaudioside A (95%, Tate & Lyle, 210617-01), and monk fruit (50% mogroside V, Tate & Lyle, 45GF220305). Another solution was prepared at about 6 SEV of a blend composed of 80% purified mogroside-V (Chem Faces, CFS202202), 15% 11-oxo-mogroside-V (Chem Faces, CFS202201), and 5% mogroside IIIA-1 (Chem Faces, CFS202201). The concentration of each solution can be found in Table 7.
A set of samples of each solution was evaluated by a panel of 7-9 trained judges. Panelists measured the time to onset of sweetness and time to reach maximum sweetness using a timer. Sweetness decay after expectorating was measured by rating sweetness intensity every 5 seconds on a 15-cm line scale graduated in evenly spaced 5-point increments and labeled low (0) to high (60). Samples were served at room temperature in 4-oz soufflé cups, labeled with random 3-digit codes. Water and saltine crackers were provided for rinsing between samples. Blind duplicates were evaluated in a second panel under the same conditions.
as §1
Two individual mogroside components of the blend, 11-oxo mogroside-V (Chem Faces, […]) and mogroside III-A1 (Chem Faces, 202301), were evaluated separately in spring water (Ice Mountain, retail) to determine the concentration needed to reach approximately 6 SEV. Solutions were then prepared at 3600 ppm of 11-oxo-mogroside-V and 600 ppm mogroside IIIA-1.
A panel of 6-7 trained judges evaluated the solutions by measuring the time to onset of sweetness and time to reach maximum sweetness using a timer. Decay of lingering aftertaste after expectorating was measured by rating sweetness intensity every 5 seconds on a 15-cm line scale graduated in evenly spaced 5-point increments and labeled low (0) to high (60). Samples were served at room temperature in 4-oz soufflé cups, labeled with random 3-digit codes, including blinded duplicates. Water and saltine crackers were provided for rinsing between samples.

[4] = cited from earlier work
[5] = solutions at about 6 SEV, room temperature
[6] = sucrose, not evaluated in this test

Structure (SMILES)	Astringent, average intensity score [1]	Bitter Linger, average intensity score [1]	Bitterness, average intensity score [1]	Body, average intensity score [1]	Caramel, average intensity score [1]	Fruity, average intensity score [1]	Licorice, average intensity score [1]	Sweet Linger, average intensity score [1]	Sweetness, average intensity score [1]	taste quality in words [1]	SEV at 1,000 ppm ([2]; from Beidler curve)	Potency at 5 SEV [2]	sweetness decay time after expectorating ([3]; solutions at about 6 SEV)	further results
C[C@H](CC[C@@H](O[C@@H]1O[C@H](CO[C@@H]2O[C@H](CO)[C@@H](O)[C@H](O)[C@H]2O)[C@@H](O)[C@H](O)[C@H]1O[C@@H]1O[C@H](CO)[C@@H](O)[C@H](O)[C@H]1O)C(C)(C)O)[C@H]1CC[C@@]2(C)[C@@H]3CC=C4[C@@H](CC[C@H](O[C@@H]5O[C@H](CO[C@@H]6O[C@H](CO)[C@@H](O)[C@H](O)[C@H]6O)[C@@H](O)[C@H](O)[C@H]5O)C4(C)C)[C@]3(C)C(=O)C[C@]12C [11-oxo-mogroside V]	4.3	0.7	7.7	12.7	4.8	2.1	2.1	17.1	37.1	slight bitterness	4.2 SEV	28×	about 45 seconds	potency, times as sweet as sucrose at 5 SEV ([2]; listed as 11-oxo mogroside-V): approximately 28 times as sweet as sucrose; potency, times as sweet as sucrose at 5 SEV ([2]; listed as 11-oxo-mogroside-V): 28 times as sweet as sucrose
C[C@H](CC[C@@H](O[C@@H]1O[C@H](CO[C@@H]2O[C@H](CO)[C@@H](O)[C@H](O)[C@H]2O)[C@@H](O)[C@H](O)[C@H]1O[C@@H]1O[C@H](CO)[C@@H](O)[C@H](O)[C@H]1O)C(C)(C)O)[C@H]1CC[C@@]2(C)[C@@H]3CC=C4[C@@H](CC[C@H](O)C4(C)C)[C@]3(C)[C@H](O)C[C@]12C [Mogroside IIIA-1, mogroside IIIA-1]	5.1	37.3	37.3	12.1	1.9	0.7	2.2	5.7	34.5	strongly bitter with a strong lingering bitter aftertaste		71×		taste quality in words ([1]; listed as mogroside IIIA-1): strong bitter aftertaste that almost immediately overwhelmed any lingering sweet sensation; SEV at which the concentration response curve plateaus ([2]; in vivo): 4-5 SEV; concentration at which sweetness plateaus ([2]; in vivo): about 500 ppm; duration of bitter taste after expectorating ([3]; 600 ppm, about 6 SEV): more than 60 seconds
C[C@H](CC[C@@H](O[C@@H]1O[C@H](CO[C@@H]2O[C@H](CO)[C@@H](O)[C@H](O)[C@H]2O)[C@@H](O)[C@H](O)[C@H]1O[C@@H]1O[C@H](CO)[C@@H](O)[C@H](O)[C@H]1O)C(C)(C)O)[C@H]1CC[C@@]2(C)[C@@H]3CC=C4[C@@H](CC[C@H](O[C@@H]5O[C@H](CO[C@@H]6O[C@H](CO)[C@@H](O)[C@H](O)[C@H]6O)[C@@H](O)[C@H](O)[C@H]5O)C4(C)C)[C@]3(C)[C@H](O)C[C@]12C [Mogroside V, mogroside V]	2.9 and 2.5	0.0	1.1 and 1.4	11.9 and 12.1	4.2 and 4.5	2.6 and 3.0	0.8 and 0.7	16.2 and 14.3	35.9 and 36.3		11.5 SEV	185×		Beidler equation denominator constant (SEV=a*C/(b+C), b) ([2]; C = concentration): 920.8 ppm or mg/L; Beidler equation numerator constant (SEV=a*C/(b+C), a) ([2]; SEV = % sucrose equivalent sweetness): 22.03; potency, times as sweet as sucrose at 5 SEV ([2]; listed as mogroside V): 185 times as sweet as sucrose; potency, times as sweet as sucrose at 5 SEV ([2]; listed as mogroside-V): about 185 times as sweet as sucrose; potency, times as sweet as sucrose at 5 SEV ([2]; listed as purified Mog-V): ~200 times as sweet as sucrose; Potency at 10 SEV ([2]; at 10 SEV, from Beidler curve): 131×; onset of sweetness [3, 5]: 1.1 s; time to reach maximum sweetness [3, 5]: 2.5 s
C=C1C[C@@]23CC[C@H]4[C@@](C)(CCC[C@@]4(C)C(=O)O[C@@H]4O[C@H](CO)[C@@H](O)[C@H](O)[C@H]4O)[C@@H]2CC[C@]1(O[C@@H]1O[C@H](CO)[C@@H](O)[C@H](O[C@@H]2O[C@H](CO)[C@@H](O)[C@H](O)[C@H]2O)[C@H]1O[C@@H]1O[C@H](CO)[C@@H](O)[C@H](O)[C@H]1O)C3 [Rebaudioside A, rebaudioside A]										a bitter taste continued to linger; also recorded: notable bitterness compared to the other sweeteners			about 40 seconds	
C=C1C[C@@]23CC[C@H]4[C@@](C)(CCC[C@@]4(C)C(=O)O[C@@H]4O[C@H](CO)[C@@H](O)[C@H](O[C@@H]5O[C@H](CO)[C@@H](O)[C@H](O)[C@H]5O)[C@H]4O[C@@H]4O[C@H](CO)[C@@H](O)[C@H](O)[C@H]4O)[C@@H]2CC[C@]1(O[C@@H]1O[C@H](CO)[C@@H](O)[C@H](O[C@@H]2O[C@H](CO)[C@@H](O)[C@H](O)[C@H]2O)[C@H]1O[C@@H]1O[C@H](CO)[C@@H](O)[C@H](O)[C@H]1O)C3 [Rebaudioside M, rebaudioside M]													50 s	
OC[C@H]1O[C@@](CO)(O[C@H]2O[C@H](CO)[C@@H](O)[C@H](O)[C@H]2O)[C@@H](O)[C@@H]1O [sucrose]														sweetness decay time (typical value) ([4]; 6 SEV solution of sucrose): 20 to 25 s; onset of sweetness (general value, not evaluated in this test) [4, 6]: about 0.5 seconds; time to reach maximum sweetness (general value, not evaluated in this test) [4, 6]: around 1 second
